Patent US7906507B2, “Oxadiazoanthracene compounds for the treatment of diabetes” (TransTech Pharma, Inc., priority 2008, dated 2011)

Assays:
[1] = target: T1, human GLP-1 receptor (Homo sapiens, UniProt P43220); assay: Receptor binding assay: [125I]GLP-1 (aa 7-36) equilibrium radioligand binding; conditions: membranes from HEK-293 or CHO cells expressing the human GLP-1 receptor; room temp 120 min
T1 construct: expressed in transfected cells; host or cells: HEK-293 or CHO cells (membranes)
Experimental: Reactions were carried out in 96-well plates. Compound was diluted in 20% DMSO/water. The final assay concentration ranging from 0.1 nM to 100 uM in 2% final DMSO concentration was used. […] Plates were washed 5 times with cold 25 mM Tris-HCL, pH 7.5 containing 0.05% bovine serum albumin (BSA). Following filtration, 50 uL of Microscint PS (Packard part no. 6013631) was added, plates were sealed with TopSeal-A adhesive seals (Packard part no. 6005185). ^125I isotope bound to the Unifilter-96 GF/C plates was counted using a TopCount instrument (Packard).
Percent inhibition of [^125I] […] The IC50 values were calculated by fitting the data using parameters for a sigmoidal dose response, variable slope nonlinear regression (GraphPAD Prizm, San Diego, Calif.) according to the equation: Y=Bottom+(Top-Bottom)/(1+10^((Log EC50−X)*HillSlope)) wherein, X is the logarithm of concentration and Y is the response, and Y starts at Bottom and goes to Top with a sigmoid shape. This is identical to the four parameter logistic equation.

[2] = target: T2, cloned human GLP-1 receptor (Homo sapiens, UniProt P43220); assay: Functional cell-based assay: cAMP functional assay; conditions: for Emax: 0.5 h, percentage relative to maximal GLP-1-induced cAMP accumulation, na = not active in the assay, read-out: % activation
T2 construct: expressed in transfected cells; host or cells: CHO or HEK-293 cells
T2 sequence (P43220 24-463): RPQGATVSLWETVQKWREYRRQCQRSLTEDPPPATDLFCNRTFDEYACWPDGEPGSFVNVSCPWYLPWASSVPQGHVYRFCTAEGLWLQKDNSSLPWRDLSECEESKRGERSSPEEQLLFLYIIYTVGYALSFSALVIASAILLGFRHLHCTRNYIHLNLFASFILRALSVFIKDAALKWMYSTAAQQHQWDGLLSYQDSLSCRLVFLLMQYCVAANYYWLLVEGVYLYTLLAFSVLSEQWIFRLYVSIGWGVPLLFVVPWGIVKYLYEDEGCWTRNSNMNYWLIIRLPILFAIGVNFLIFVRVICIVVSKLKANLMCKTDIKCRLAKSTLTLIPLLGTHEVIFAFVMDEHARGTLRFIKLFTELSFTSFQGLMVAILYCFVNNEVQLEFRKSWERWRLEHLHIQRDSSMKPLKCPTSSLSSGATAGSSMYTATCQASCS
Summary of the method: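 Monolayer cells incubated 30 min at 37 °C with compounds (0.0001–100 μM) in IMDM containing 100 μM RO 20-1724 PDE inhibitor, 0.1% BSA and 2% DMSO. cAMP measured by HTRF.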

T1 sequence (P43220 24-463): as above

| % binding vs [125I]GLP-1 [1] | EC50 [2] | Emax [2] | Compound |
| --- | --- | --- | --- |
| 68% | 145 nM | 99.6% | N#Cc1ccc(-c2ccc(C[C@H](NC(=O)[C@@H]3Cc4cc5c(cc4CN3C(=O)c3ccccc3)OC(c3ccc(OCc4ccc(Cl)c(Cl)c4)cc3)C(=O)N5)C(=O)O)cc2)cc1 (stereo partly drawn) [Example 15, (S)-2-({(S)-6-Benzoyl-3-[4-(3,4-dichloro-benzyloxy)-phenyl]-2-oxo-2,3,5,6,7,8-hexahydro-1H-4-oxa-1,6-diaza-anthracene-7-carbonyl}-amino)-3-(4′-cyano-biphenyl-4-yl)-propionic acid] |
| 60% | 130 nM | 56% | N#Cc1ccc(-c2ccc(C[C@H](NC(=O)[C@@H]3Cc4cc5c(cc4CN3Cc3ccccn3)OC(c3ccc(OCc4ccc(Cl)c(Cl)c4)cc3)C(=O)N5)C(=O)O)cc2)cc1 (stereo partly drawn) [Example 39, (S)-3-(4′-Cyano-biphenyl-4-yl)-2-({(S)-3-[4-(3,4-dichloro-benzyloxy)-phenyl]-2-oxo-6-pyridin-2-ylmethyl-2,3,5,6,7,8-hexahydro-1H-4-oxa-1,6-diaza-anthracene-7-carbonyl}-amino)-propionic acid] |
| 44% | – | – | CC[C@H](c1ccccc1)N1Cc2cc3c(cc2C[C@H]1C(=O)N[C@@H](Cc1ccc(-c2ccc(C#N)cc2)cc1)C(=O)O)N(C)C(=O)[C@@H](c1ccc(OCc2ccc(Cl)c(Cl)c2)cc1)O3 [Example 89] |
| 65% | 364 nM | 49% | CC[C@@H](c1ccccc1)N1Cc2cc3c(cc2C[C@H]1C(=O)N[C@@H](Cc1ccc(-c2ccc(F)cc2)cc1)C(=O)O)N(C)C(=O)[C@H](c1ccc(OCc2ccc(Cl)c(Cl)c2)cc1)O3 [Example 95, (S)-2-{[(3S,7S)-3-[4-(3,4-Dichloro-benzyloxy)-phenyl]-1-methyl-2-oxo-6-((S)-1-phenyl-propyl)-2,3,5,6,7,8-hexahydro-1H-4-oxa-1,6-diaza-anthracene-7-carbonyl]-amino}-3-(4′-fluoro-biphenyl-4-yl)-propionic acid] |
